For experiment [1], the system named is Jurkat cell adhesion to IL-1 stimulated endothelial cells (β1 integrins, α4 β1). In words: Jurkat-Endothelial Cell Adhesion Assay. It counts as cell-based, human. The following applies: Jurkat T cells on IL-1 stimulated HUVEC; no unit printed in the table (text gives IC50 and test concentrations in μM); read-out: IC50 for adhesion inhibition Jurk-EC. As for the experimental part: Jurkat-Endothelial Cell Adhesion Assay […] This assay measured the adhesive interactions of a T-cell line, Jurkat, known to express high levels of α4 β1, to endothelial cell monolayers in the presence of representative test compounds of the present invention. The test compounds were added in increasing concentrations to T-cells and then the T-cell/compound mixture was added to IL-1 stimulated endothelial cell monolayers. The plates were incubated, washed and the percentage of attached cells was quantitated. […] Human umbilical vein endothelial cells (HUVEC) were purchased from Clonetics (San Diego, Calif.) at passage number 2. The cells were grown on 0.5% porcine skin gelatin pre-coated flasks (Sigma, St. Louis, Mo.) in EGM-UV media (Clonetics, San Diego, Calif.) supplemented with 10% fetal bovine serum. Cells were re-fed every 2-3 days, reaching confluence by day 4 to 6. […] The endothelial cells were not used following passage 7. The T-cell line Jurkat was obtained from American Type Culture Collection and cultured in RPMI media containing 10% fetal calf serum. […] Following this incubation, the monolayers were washed twice with PBS containing 1 mM calcium chloride and 1 mM magnesium chloride and the plates were read using a Millipore Cytofluor 2300 (Marlboro, Mass.). […] Monolayers were also fixed in 3% paraformaldehyde and evaluated microscopically to verify the adhesion. […]

The subject of experiment [2] is JY cell adhesion to TNF stimulated endothelial cells (β2 integrins). In words: JY-Endothelial Cell adhesion assay. It counts as cell-based, human. The following applies: JY B cells + PMA on rTNF-stimulated HUVEC; no unit printed in the table (text gives IC50 and test concentrations in μM); read-out: IC50 for adhesion inhibition JY-EC. How it is done: The JY-Endothelial Cell Assay
The following assay established the activity of the present compounds in inhibiting cell adhesion through β2 integrins in a representative in vitro system.
The human B cell line, JY, was cultured in RPMI media containing 10% fetal calf serum at 37° C., in a humidified CO2 atmosphere. Endothelial cells were grown to confluency in 96-well micro-titer assay plates, as in the Jurkat-EC assay. Before the assay, the endothelial cells were stimulated with 50 U/ml rTNF for 18-24 hours at 37° C. JY cells were loaded with the fluorescent dye indicator BCECF-AM as follows: JY cells were washed twice with HBSS and cells were resuspended in HBSS at 5×10^6 cells/ml; BCECF-AM (Molecular Probes), stock concentration=1 mg/ml in DMSO, was added to the JY cells to a final concentration of 2 μg/ml; cells were incubated in the dark at 37° C. for 30-45 minutes; washed twice with HBSS and used in the assay. […]
The assay plates were then typically incubated for 30 min at 37° C. and washed four times with PBS containing Mg^2+ and Ca^2+ (room temp). 100 μl of PBS containing Mg^2+ and Ca^2+ were added to each well and the fluorescence from the adherent BCECF-labelled cells was analyzed using a fluorescence plate reader. […]

Usually IC50 stands for the concentration that inhibits the measured activity by half.

Turning to “(1-FCA)-Arg-Cys*-(β-Asp)-(ThioP)-Cys*-Ala-Ala-Asp-(OFm) [Compound 35]”, in experiment [1], the 50% inhibitory concentration (IC50) came out at 267 µM.

With “(9-FAc)-Arg-Cys*-(β-Asp)-(ThioP)-Cys*-(Abu)-Lys [Compound 65]”, the half-inhibitory concentration (IC50) in experiment [2] worked out at 353 µM.

Consider “(Ac)-Arg-Cys*-(β-Asp)-(ThioP)-Cys*-Ala-Asp-(OFm) [Compound 37]”, for which the IC50 in experiment [1] came to 106 µM.

In the case of “(Fmoc)-Arg-Cys*-(β-Asp)-(ThioP)-Cys* [Compound 22]”, the IC50 in experiment [2] was determined as 52 µM.
